According to publication PMC3847553, “Kinetic properties of “dual” orexin receptor antagonists at OX1R and OX2R orexin receptors” (Frontiers in Neuroscience, 2013):
Like-named read-outs stand apart in the source and are kept apart here.

Key:
mouse OX1R = molecular target: T1, mouse OX1R (Mus musculus, UniProt P58307); test: FLIPR orexin A-stimulated calcium accumulation, mouse OX1R; assay type: cell-based; details: HEK cells
T1 construct: expressed in transfected cells; host or cells: HEK; cells from GNF, San Diego
T1 sequence (P58307 1-416): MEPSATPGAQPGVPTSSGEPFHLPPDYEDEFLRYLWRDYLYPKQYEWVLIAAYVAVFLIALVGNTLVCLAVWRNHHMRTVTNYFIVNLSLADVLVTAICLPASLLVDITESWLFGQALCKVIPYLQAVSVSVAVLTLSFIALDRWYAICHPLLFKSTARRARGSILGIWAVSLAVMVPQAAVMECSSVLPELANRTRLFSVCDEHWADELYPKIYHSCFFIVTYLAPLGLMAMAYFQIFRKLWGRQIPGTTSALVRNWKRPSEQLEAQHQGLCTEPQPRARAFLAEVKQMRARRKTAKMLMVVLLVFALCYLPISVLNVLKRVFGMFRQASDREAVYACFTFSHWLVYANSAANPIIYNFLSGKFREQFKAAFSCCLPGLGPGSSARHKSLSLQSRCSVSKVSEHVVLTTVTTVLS
Method: (§1) Chinese Hamster Ovary (CHO) cells stably transfected with the cDNA encoding the human OX1R (CHO-hOX1) or OX2R (CHO-hOX2) were used (kindly provided by T. Cremer and Dr. S. Geisse, NIBR Basel, Switzerland). For measurements of calcium accumulation using FLIPR® (Fluorescent Imaging Plate Reader) assay, CHO or Human Embryonic Kidney (HEK) cells stably expressing mouse, rat or human OX1R or OX2R (kindly provided by Dr. A. Chen, GNF, San Diego, CA, USA) were used. All cells were cultured in 1:1 Dulbecco's Modified Eagle's Medium (DMEM)/Ham's F12 Nutrients Mixture (F12) supplemented with 10% (v/v) fetal bovine serum (FBS), 100 μ/ml (100 g/ml)/streptomycin (100 μg/ml), Fungizone (250 μg/ml), and Geneticin (G418, 50 mg/ml). Cells were maintained in a humidified incubator at 37°C in 5% CO2. For crude cell membrane preparations, cells were washed and harvested in 10 mM HEPES (pH 7.5), and centrifuged at 4°C for 5 min at 2500 g. The cell pellet was either stored at −80°C or used directly.
(§2) Cells expressing either human, rat or mouse OX1R or OX2R were seeded at 8,000 cells/well in black 384 well clear bottom plates and incubated overnight at 37°C. The following day, medium was discarded and cells loaded with 50 μ l of 1 mM Fluo-4 AM (Invitrogen F14202) in dimethyl sulfoxide in working buffer (Hanks' balanced salt solution, 10 mM HEPES) and incubated for 60 min at 37°C. The loading buffer was removed and cells were washed with 100 μ l working buffer containing […], 0.1% BSA, and 2.5 mM Probenecid (pH 7.4) to remove the excess Fluo-4 AM. […] The assay plate was then transferred to the Molecular Devices-FLIPR384. The baseline calcium signal was recorded for 10 s, then the antagonist of interest was injected (10 μl at 3 times the final concentration) and the calcium signal recorded every second for 1 min, then every 2 s 40 times. Plates were then incubated at room temperature for 30 min, 1, 2, or 4 h.

human OX1R = molecular target: T2, human OX1R (Homo sapiens, UniProt O43613); test: FLIPR orexin A-stimulated calcium accumulation, human OX1R; assay type: cell-based; details: CHO cells
T2 construct: expressed in transfected cells; host or cells: CHO; cells from GNF, San Diego
T2 sequence (O43613 1-425): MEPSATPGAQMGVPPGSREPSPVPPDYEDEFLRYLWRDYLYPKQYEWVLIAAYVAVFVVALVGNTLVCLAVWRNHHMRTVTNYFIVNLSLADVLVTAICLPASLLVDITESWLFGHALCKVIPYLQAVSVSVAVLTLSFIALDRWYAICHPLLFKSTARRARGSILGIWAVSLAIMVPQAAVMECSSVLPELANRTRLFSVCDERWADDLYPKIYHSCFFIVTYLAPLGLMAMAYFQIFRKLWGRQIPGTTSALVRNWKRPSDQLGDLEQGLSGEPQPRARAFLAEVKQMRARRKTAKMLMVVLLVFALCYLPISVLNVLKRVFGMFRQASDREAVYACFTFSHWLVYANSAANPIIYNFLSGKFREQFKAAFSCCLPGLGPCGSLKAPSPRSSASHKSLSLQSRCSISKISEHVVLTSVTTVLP
Text: as §1, with “All cells were cultured in 1:1 Dulbecco's Modified Eagle's Medium (DMEM)/Ham's F12 Nutrients Mixture (F12) supplemented with 10% (v/v) fetal bovine serum (FBS), 100 μ/ml (100 g/ml)/streptomycin (100 μg/ml), Fungizone (250 μg/ml), and Geneticin (G418, 50 mg/ml).” left out
as §2, with “times.” for “times. Plates were then incubated at room temperature for 30 min, 1, 2, or 4 h.”

[1] = pKi, antagonist incubation 30 min
[2] = antagonist incubation 30 min, read-out: pKi (converted)
[3] = antagonist incubation 1 h, read-out: pKi (converted)
[4] = antagonist incubation 2 h, read-out: pKi (converted)
[5] = antagonist incubation 4 h, read-out: pKi (converted)

Row | SMILES | Ki (mouse OX1R; [1]) [nM] | Ki (mouse OX1R; pKi, antagonist incubation 1 h) [nM] | Ki (mouse OX1R; pKi, antagonist incubation 2 h) [nM] | Ki (mouse OX1R; pKi, antagonist incubation 4 h) [nM] | Ki (human OX1R; antagonist incubation 30 min) [nM] | Ki (human OX1R; antagonist incubation 1 h) [nM] | Ki (human OX1R; antagonist incubation 2 h) [nM] | Ki (human OX1R; antagonist incubation 4 h) [nM] | Ki (mouse OX1R; [2]) [nM] | Ki (mouse OX1R; [3]) [nM] | Ki (mouse OX1R; [4]) [nM] | Ki (mouse OX1R; [5]) [nM] | pKi (human OX1R; antagonist incubation 1 h) | pKi (human OX1R; antagonist incubation 2 h)
1 | CNC(=O)[C@@H](c1ccccc1)N1CCc2cc(OC)c(OC)cc2[C@@H]1CCc1ccc(C(F)(F)F)cc1 [Almorexant] | 18.6 | 23.4 | 33.9 | 38.9 |  |  |  |  |  |  |  |  |  | 
2 | Cc1ccc(-c2ncccn2)c(C(=O)N2C[C@H](COc3ccc(F)cn3)CC[C@H]2C)c1 [Filorexant] |  |  |  |  | 2.24 | 1.62 | 1.66 | 2.82 | 5.25 | 4.07 | 6.61 | 5.89 |  | 
3 | COc1ccnc(N2CCC3(CCCN(Cc4c[nH]c5ccccc45)C3=O)CC2)n1 [IPSU, 2-((1H-Indol-3-yl)methyl)-9-(4-methoxypyrimidin-2-yl)-2,9-diazaspiro[5.5]undecan-1-one] |  |  |  |  | 479 |  |  | 724 | 331 | 490 | 288 | 324 | 6.29 −log M | 6.28 −log M
4 | Cc1nc(C(=O)N2CCCC[C@H]2CNC(=O)c2cccc3occc23)c(-c2ccc(F)cc2)s1 [SB-649868] |  |  |  |  | 0.933 | 1.35 | 0.513 | 0.417 | 0.158 | 0.427 | 0.0407 | 0.0468 |  | 
5 | Cc1ccc(-n2nccn2)c(C(=O)N2CCN(c3nc4cc(Cl)ccc4o3)CC[C@H]2C)c1 [Suvorexant] | 1.26 | 1.05 | 0.933 | 1.02 |  |  |  |  |  |  |  |  |  | 
